Patent publication EP0880540B1, “17-BETA-CYCLOPROPYL(AMINO/OXY) 4-AZA STEROIDS AS ACTIVE INHIBITORS OF TESTOSTERONE 5-ALPHA-REDUCTASE AND C17-20-LYASE” (Aventis Pharmaceuticals Inc., priority 1996, dated 1997)

Columns and labels:
[1] = test system: PC-82 Human Tumor; experiment: PC-82 human tumor growth in nude mice; assay type: in vivo, male nude mice; settings: MDL 103432 and MDL 105831 50 mg/kg B.I.D., MDL 15910 15 mg/kg B.I.D., per os
From the text: As described in van Steenbrugge, G.J. et al., J. Urol 131: 812-817 (1984) van Steenbrugge G.J. et al., The Prostate 11: 195-210 (1987) and Redding, T.W. et al., Cancer Research 52, 2538-2544 (1992), male nude mice (Hsd:athymic, Nude-nu) were obtained from Harlan Sprague Dawley. Mice were housed in sterilized micro-isolators and fed autoclaved ABLE® rodent chow (Purina Mills Inc., St. Louis, MO) and deionized water, adlibitum. Tumor-donating mice were first anesthetized using sodium pentobarbital and then sacrificed by cervical dislocation. The tumor was subsequently excised and placed in a petri dish containing ice-cold Hanks balanced salt solution. Tumors were cut into 2-3 mm cubes for implantation. Recipient animals were first anesthetized with 50 mg/kg pentobarbital, then implanted, by use of a trocar, with tumor fragments (one per mouse) in the dorsal area. Animals were separated into two control groups, one with vehicle alone and the other castrated, and the treatment groups, where n is the number of animals in each group.
Animals were selected for treatment groups based on tumor size. Each test compound was prepared as a solution or suspension in a lecithin vehicle (L-α-phosphatidylcholine type XV-E) containing methylparaben and propylparaben at a dose volume of 10 cc/kg. Animals were treated for 42 days by oral gavage (per os) seven days per week. Twenty-four hours after the last treatment the animals were euthenized by CO2 and tumors were removed and weighed. During the study period, mice were weighed and palpated weekly for tumors. In Table 5, average tumor growth is determined from the corrected group means over a 28 day period after treatment was started. […] The following animal data was deleted before computation of the corrected mean data in Table 5, Fig. 1: animals 4 and 44; Fig. 2: animals 10, 38 and 42; Fig. 3: Animal 39; Fig. 4: Animals 8, 9 and 49; Fig. 5: Animals 37 and 40 and 41.
Table 5 illustrates the average tumor growth in animals treated with 4-aza-17β-(cyclopropyloxy)-5α-androstan-3-one (MDL 103432; 50 mg/kg B.I.D.) 4-aza-17β-(cyclopropylamino)-androst-5(6)-en-3-one (MDL 105831; 50 mg/kg B.I.D.) and flutamide (MDL 15,910; 15 mg/kg B.I.D.), a known androgen receptor antagonist. The average growth rate of each tested compound relative to the vehicle and castrated controls is consistent with the in vivo inhibition of androgens.

[2] = test system: Dunning H Tumor; experiment: Dunning H tumor growth in rats; assay type: in vivo, male Copenhagen rats; settings: MDL 105831 15 mg/kg/day PO, MDL 15910 50 mg/kg/day PO
From the text: As described in J.T. Isaacs & D.S. Coffey, Cancer Res. 41:5070-5075 (1981); W.J. Ellis & J.T. Issacs, Cancer Res. 45:6041-6050 (1985); T.W. Bedding & A.V. Schally, The Prostate 6:219-232 (1985) and P.E. Juniewicz et al. The Prostate 18:105-115 (1991), male Copenhagen rats were obtained from HARLAN-SPRAGUE-DAWLEY Inc. (Indianapolis, IN), and were individually housed in suspended wire cages and provided laboratory rodent chow (Purina 5001 pellets, Purina Mills, St. Louis, MO) and deionized water ad libum. The rats were anesthetized using sodium pentobarbital and the hair was clipped from the back dorsal area. Tumors from donor Copenhagen rats were cut into fragments of 10 mm^3 and implanted subcutaneously (one site per rat) into the prepared dorsal area.
Animals were selected (105 days post implantation) for the treatment phase based on tumor size. Ten animals were anesthetized with sodium pentobarbital and bilaterally castrated. The remaining animals were assigned to treatment groups (ten per group) based on mean group tumor size. Animals were kept separate throughout the study. The tested compounds were prepared in solution or suspension in a lecithin vehicle (L-α-phosphatidylcholine type XV-E) containing methylparaben and propylparaben. All treatments were performed by oral gavage (per os) at 2 cc/kg each day of study. Tumor size and rat body weights were recorded every seven days over a period of 35 days. Twenty-four hours after the last treatment animals were euthenized by CO2 and the tumors, prostate, seminal vesicles and testes were removed and weighed. In Table 4, average tumor growth is determined from the corrected group means over a 35 day period after treatment was started. […] The animals eliminated from the calculation of the corrected means were in Figure 6, animals 8, 9, 10; in Figure 7, animals 18, 19 and 20; in Figure 8, animals 27, 28, 29 and 30; and in Figure 9, animals 37, 39 and 40. The castrated controls in Figure 10 present a different problem. Here it is believed that the different tumor volumes observed throughout the group is attributable to the different sizes at the beginning of the study. Since the mean variance here is clearly attributable to factors other than the effect of the castration itself, animals 47, 48, 49 and 50 were deleted from the corrected mean. Of these, animal 47 died during the treatment period.
Table 4 indicates the average daily growth rate, measured from the corrected mean tumor size on day 35 and day 0, comparing MDL 105831 and flutamide (MDL 15910), a known androgen receptor antagonist. […]

CC(C)C(=O)Nc1ccc([N+](=O)[O-])c(C(F)(F)F)c1 [MDL 15910, N-(3-Trifluoromethyl-4-nitro-phenyl)-isobutyramide, reference compound]
Tumor Growth in PC-82 Human Tumor in Male Nude Mice, Day 7 ([1]; Day 7, corrected group mean): 222.7 mm^3
Tumor Growth in PC-82 Human Tumor in Male Nude Mice, Day 15 ([1]; Day 15, corrected group mean): 262.9 mm^3
Tumor Growth in PC-82 Human Tumor in Male Nude Mice, Day 21 ([1]; Day 21, corrected group mean): 319.7 mm^3
Tumor Growth in PC-82 Human Tumor in Male Nude Mice, Day 28 ([1]; Day 28, corrected group mean): 563.4 mm^3
Tumor Growth in PC-82 Human Tumor in Male Nude Mice, Day 35 ([1]; Day 35, corrected group mean): 479.3 mm^3
Tumor Growth in PC-82 Human Tumor in Male Nude Mice, Day -4 ([1]; Day -4 (before treatment), corrected group mean): 138.7 mm^3
Δv/Δt (day 35-day 7) ([1]; average tumor growth over 28 days from corrected group means): 9.16 mm^3/day
Tumor Growth in Dunning H Rat, Day 0 ([2]; Day 0 (baseline), corrected group mean): 317.00 mm^3
Tumor Growth in Dunning H Rat, Day 7 ([2]; Day 7, corrected group mean): 604.64 mm^3
Tumor Growth in Dunning H Rat, Day 16 ([2]; Day 16, corrected group mean): 877.86 mm^3
Tumor Growth in Dunning H Rat, Day 21 ([2]; Day 21, corrected group mean): 851.29 mm^3
Tumor Growth in Dunning H Rat, Day 29 ([2]; Day 29, corrected group mean): 1313.57 mm^3
Tumor Growth in Dunning H Rat, Day 35 ([2]; Day 35, corrected group mean): 1214.57 mm^3
Δv/Δt (day 35-day 0) ([2]; average daily growth rate from corrected mean tumor size): 25.64 mm^3/day
